# Laboratory results reported in publication PMC7175138, “Synthesis and Bioactivity of Thiazolethioacetamides as Potential Metallo-β-Lactamase Inhibitors” (Antibiotics, 2020).
# Molecular target: ImiS (Aeromonas veronii, UniProt O31272)
# Assay: Enzyme inhibition assay, MβL ImiS, cefazolin as substrate
# Type: biochemical
# Conditions: 25 °C, 30 min premix
# Protocol: (§1) To test the inhibitory activity of compounds 1–12 against MβLs, three representative MβLs, VIM-2 (B1), ImiS (B2), and L1 (B3), were chosen for evaluation.
# (§2) The enzyme inhibition activity assay was carried out on an Agilent-8453 UV-visible spectrometer. […] Cefazolin (Sigma-Aldrich, Burlington, MO, USA), with a concentration of 20 to 140 μM, was taken as the substrate. The enzyme and inhibitor were premixed with the corresponding MβL and the thiazolethioacetamides for 30 min. The IC50 values were measured at 25 °C with the inhibitor concentrations of 0 and 1000 μM, and analyzed through IC50 calculation tool (AAT Bioquest Inc., sunnyvale, CA, USA).
# ImiS, sequence (O31272 entry or part of it): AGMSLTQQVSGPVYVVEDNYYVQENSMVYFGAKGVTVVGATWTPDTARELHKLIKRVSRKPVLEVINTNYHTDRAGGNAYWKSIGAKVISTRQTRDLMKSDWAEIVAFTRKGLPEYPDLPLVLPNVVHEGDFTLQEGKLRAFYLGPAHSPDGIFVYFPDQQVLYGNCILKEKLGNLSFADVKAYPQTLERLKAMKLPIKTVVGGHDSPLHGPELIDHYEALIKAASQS
row,Compound,IC50
1,O=C(CSc1nnc(-c2ccccc2O)s1)Nc1ccc([N+](=O)[O-])cc1Cl [Compound 7],420 nM
2,O=C(CSc1nnc(-c2ccccc2O)s1)Nc1ccc(F)cc1 [Compound 9],460 nM
3,O=C(CSc1nnc(-c2ccccc2O)s1)Nc1ccc(OC(F)(F)F)cc1 [Compound 8],310 nM
4,O=C(CSc1nnc(-c2ccccc2O)s1)Nc1ccc(Cl)cc1[N+](=O)[O-] [Compound 5],170 nM
5,O=C(CSc1nnc(-c2ccccc2O)s1)Nc1ccccc1F [Compound 11],680 nM
6,O=C(CSc1nnc(-c2ccccc2O)s1)Nc1ccc(Cl)c(Cl)c1 [Compound 3],690 nM
7,O=C(CSc1nnc(-c2ccccc2O)s1)Nc1ccc(Cl)cc1Cl [Compound 4],580 nM
8,O=C(CSc1nnc(-c2ccccc2O)s1)Nc1c(F)cccc1F [Compound 12],700 nM
9,O=C(CSc1nnc(-c2ccccc2O)s1)Nc1ccc(Cl)cc1 [Compound 1],580 nM
10,O=C(CSc1nnc(-c2ccccc2O)s1)Nc1cc(Cl)ccc1[N+](=O)[O-] [Compound 6],360 nM
11,O=C(CSc1nnc(-c2ccccc2O)s1)Nc1cccc(Cl)c1 [Compound 2],530 nM
12,O=C(CSc1nnc(-c2ccccc2O)s1)Nc1cccc(F)c1 [Compound 10],610 nM

# Molecular target: VIM-2 (Escherichia coli, UniProt Q5U7L7)
# Assay: Enzyme inhibition assay, MβL VIM-2, cefazolin as substrate
# Type: biochemical
# Conditions: 25 °C, 30 min premix
# Protocol: as §1, §2
row,Compound,IC50
1,O=C(CSc1nnc(-c2ccccc2O)s1)Nc1ccc(OC(F)(F)F)cc1 [Compound 8],2200 nM
2,O=C(CSc1nnc(-c2ccccc2O)s1)Nc1c(F)cccc1F [Compound 12],19200 nM
